Laboratory results published in patent publication US8354265B2, “Chemicals promoting the growth of N-acylhomoserine lactone-degrading bacteria” (Centre National de la Recherche Scientifique, priority 2007, dated 2013).

Key:
[1] = system: NAHL-degrading bacteria in the nutritive solution; assay: Ratio of NAHL-degrading bacteria in unplanted batches of nutritive solution; assay type: cell-based; details: for percentage of NAHL-degrading bacteria in the nutritive solution: without plants
Procedure: (§1) The non sterile batches (40×60×8 cm) contained 13 L of the nutritive solution Hydrobloom (Cellmax, UK) with Nitrogen at 0.80 g/L, Phosphore at 0.56 g/L and Potassium at 1.48 g/L as major components. The solution was diluted from a concentrated stock solution (×250) with non sterile water from the public water system. One hundred plants of Solanum tuberosum var. Allians, which were recovered from cultures performed under sterile conditions, were placed into holes (3 cm space to each other) of batch covers. Planted batches were placed in the greenhouse (Comité Nord Plants de Pomme de Terre, Bretteville-du-Grand-Caux) under natural light at 10-15° C. (night) and 25-30° C. (day). […] An untreated batch was used as a control. One gram of roots (fresh weight) was resuspended in 10 mL of sterile MgSO4 10 mM, diluted and spread on TSA and King B plates to isolate total cultivable bacteria and fluorescent Pseudomonas, respectively. Three samples were analyzed from each batch at each time D0, D14 and D28; from each sample, thirty isolates from TSA plates and thirty fluorescent isolates from King B plates were individually tested from production and inactivation of NAHL signal.
(§2) Bacterial isolates grown in 96-microwell plates were individually tested from production of NAHL with the A. tumefaciens biosensor NT1 (pZNLR4) and the inactivation of the C6-HSL signal, as described previously (d'Angelo-Picard et al. 2004).
Allians was evaluated. The plants were cultivated in vitro under sterile conditions, then placed into batches in a greenhouse at Bretteville-du-Grand-Caux (France) in a non-sterile environment. Especially, a non-sterile nutritive solution was used and served as a source of naturally occurring bacteria. […] The ratio of NAHL-degrading bacteria in the nutritive solution was evaluated before the treatment and 14-day later. This percentage increased from 10±2 to 30±2 in the case of the 6CL-treated batch and from 10±2 to 70±2 in the GCL-treated batch. From the 6CL- and GCL-treated batches, 10 NAHL-degrading bacteria were identified by their rrs sequence: 9 belonged to the Delftia genus, the other one to the Rhodococcus genus.

[2] = system: NAHL-degrading rhizobacteria of potato rhizosphere; assay: Preliminary experiment in planted hydroponic batches: level and diversity of NAHL-degrading rhizobacteria (Table 1); assay type: in vivo, Solanum tuberosum var. Allians
Procedure: as §1, §2
At least 400 bp were submitted to the NCBI database.

[3] = system: bacterial consortia from unplanted soil; assay: C6-HSL inactivation by bacterial consortia enriched from unplanted soil on the compound as sole carbon source; assay type: cell-based; details: soil and rhizospheric samples; among 25 assayed molecules
[4] = system: NAHL-degrading and NAHL-producing bacteria of potato rhizosphere; assay: Two independent analyses of 6CL and GCL treatments on planted batches (FIG. 7); assay type: in vivo, Solanum tuberosum var. Allians
Text: FIG. 7: Percentage of NAHL-degrading and NAHL-producing strains in potato rhizosphere. […] An untreated batch was used as a control in the two independent sets of experiments. The mean of three replicates is shown. Statistically different values (Student t test; 0.05) are noted by different letters.
as §1, §2
An untreated batch was used as a control.

[5] = system: bacterial consortia originating from rhizospheric soil; assay: C6-HSL inactivation by bacterial consortia enriched from rhizospheric soil; assay type: cell-based
bacterial consortia = assay: Inactivation of C6-HSL and OC8-HSL by mannitol, 6CL, GCL and HTN consortia; assay type: cell-based
Text: (§3) The Mannitol-, 6CL-, GCL-, and HTN-consortia were compared for their capacity to inactivated OC8-HSL, the major NAHL produced by the plant pathogen Erwinia carotovora subsp. atroseptica 6276, as well as for their biocontrol activity against this pathogen in potato maceration assay.

[6] = system: bacteria recovered from the consortia; assay: NAHL production and inactivation by isolates recovered from the consortia, with rrs identification; assay type: cell-based
[7] = system: NAHL-degrading rhizobacteria; assay: Diversity of NAHL-degrading rhizobacteria after 6CL and GCL treatments, rrs sequencing (Table 2); assay type: in vivo, Solanum tuberosum; details: D14 and D28; 0.1 mL/L
Procedure: as §1
The 5′-end of the rrs gene was amplified with primers pA (5′-[…]) (SEQ ID NO:1) and 518r (5′-[…]) (SEQ ID NO:2), and sequenced with pA primer by GenomeExpress (Meylan, France). At least 400 bp were submitted to the NCBI database. Although some sequence comparisons authorized identification of isolates at the species level, only the genus level was retained in this study for homogeneity.
The isolates were identified by rrs-sequencing (Table 2). At D0, most of the NAHL-degrading isolates were identified as Delftia. However, at D14 and D28, the Agrobacterium isolates dominated in untreated batches, while they were not detected in the treated batches. In those, the more frequently counted bacteria were Delftia and Rhodococcus.

[8] = system: Erwinia carotovora subsp. atroseptica 6276; assay: Maceration assay on potato tubers (biocontrol activity of consortia); assay type: in vivo; details: potato tubers infected with mix of Erwinia carotovora 6276 and consortia
Text: FIG. 6: Maceration assay on potato tubers.
as §3

young plants = details: in vivo
[9] = 6CL- and GCL-treated batches together, rrs sequence

O=C1CCCCCO1 [6CL, 6-caprolactone, reference compound]
NAHL-degrading bacteria belonging to the Delftia genus (of 10 identified) [1, 9]: 9 | NAHL-degrading bacteria belonging to the Rhodococcus genus (of 10 identified) [1, 9]: one | percentage of NAHL-degrading bacteria in the nutritive solution ([1]; 14-day after treatment at 1 mL/L): 30±2% | percentage of NAHL-degrading bacteria in the nutritive solution ([1]; before the treatment): 10±2% | increase of the ratio of NAHL-degrading bacteria ([2]; 0.1 mL/L, 28 days after amendment, planted batches): not | Log CFU/gram of root (fresh weight) ([2]; D0 (before treatment)): 8.0 ± 7.6 Log CFU/gram of root (fresh we | NAHL degraders (%) ([2]; D0 (before treatment)): 8.9 ± 1.5 % | NAHL producers (%) ([2]; D0 (before treatment)): 7.8 ± 1.2% | rrs-identified NAHL-degraders: Delftia ([2]; D0, of 8 isolates): 7 | rrs-identified NAHL-degraders: Pseudomonas ([2]; D0, of 8 isolates): 1 | Log CFU/gram of root (fresh weight) ([2]; D28, 0.1 mL/L): 10.5 ± 10.1 Log CFU/gram of root (fresh we | NAHL degraders (%) ([2]; D28, 0.1 mL/L): 6.7 ± 1.7 % | NAHL producers (%) ([2]; D28, 0.1 mL/L): 5.6 ± 0.6% | identified genera of NAHL-degrading bacteria ([2]; D28, 0.1 mL/L): 3 | rrs-identified NAHL-degraders: Agrobacterium ([2]; D28, 0.1 mL/L, of 8 isolates): 4 | rrs-identified NAHL-degraders: Delftia ([2]; D28, 0.1 mL/L, of 8 isolates): 2 | rrs-identified NAHL-degraders: Pseudomonas ([2]; D28, 0.1 mL/L, of 8 isolates): 2 | growth stimulation of NAHL-degrading bacteria after enrichment procedures [3]: stimulated the growth of NAHL-degrading bacteria | specific effect on the NAHL-degrading bacteria of the rhizosphere ([4]; 0.1 mL/L): no specific effect | proportion of NAHL-degrading bacteria ([4]; 0.1 mL/L, during all experiments): remained at a quite similar level | modification of the ratio of NAHL-producing bacteria ([4]; 6CL 0.1 mL/L, GCL 0.1 and 0.4 mL/L, D14 and D28): no repeatable modification | activity of consortia towards C6-HSL (ranking) [5]: the most active | speed of C6-HSL signal inactivation versus Mannitol consortia (bacterial consortia): inactivated more rapidly | speed of OC8-HSL signal inactivation versus Mannitol consortia (bacterial consortia): inactivated more rapidly | NAHL-inactivating bacteria recovered from consortia [6]: recovered | NAHL-degrading isolates related to Chryseobacterium ([6]; 6CL and GCL consortia together): 10% | NAHL-degrading isolates related to Delftia ([6]; 6CL and GCL consortia together): 80 % of the identified strains | NAHL-degrading isolates related to Ralstonia ([6]; 6CL and GCL consortia together): 3% | NAHL-degrading isolates related to Rhodococcus ([6]; 6CL and GCL consortia together): 7% | NAHL-producing bacteria among isolates of the consortia ([6]; 280 isolates from 280 independent enrichments): none | rrs-identified NAHL-degraders: Delftia [7]: 9 | rrs-identified NAHL-degraders: Others [7]: 2 | rrs-identified NAHL-degraders: Rhizobium [7]: 1 | rrs-identified NAHL-degraders: Rhodococcus [7]: 6 | biocontrol activity of the consortia against E. carotovora 6276 [8]: did not | sensitivity of young plants (young plants): sensitive
